From patent US20090149531A1, “CHEMICAL COMPOSITION DERIVED FROM P-HYDROXYPHENYL PROPIONIC ACID FOR THE TREATMENT OF PSORIASIS” (APOTEKNOS PARA LA PIEL, S.L., priority 2007, published 2009)
Several values for one entry are separate records, joined by “and”; a condition that tells them apart may be missing. Identical values can stand only once.

Legend:
[1] = Permeability study, pig ear skin in Franz cell; assay type: in vitro ADME; details: hydroalcoholic solution 63.6 μg/ml or 6.36 μg/ml
Procedure: Skin from pig ears was used as the experimental system to which a hydroalcoholic solution of compound A 6.36×10^−2 mg/ml and 6.36×10^−3 mg/ml was applied, the reference product being a control hydroalcoholic solution (without compound A). For this study 4 different hydroalcoholic solutions were prepared. The first included 6.36 μg/ml of compound A, the second included 63.6 μg/ml, and the third and fourth were control solutions without compound A. All the preparations were tested on the pig ear skin experimental system. Samples were taken in the diffuser compartment at 6 different times (0, 1, 2, 6, 12 and 24 hours). All the samples (recipients) were quantified by HPLC. FIG. 1. Concentration of compound A in the recipient of the Franz cell for a sample with a concentration of 63.6 μg/ml of A. FIG. 2. Concentration of compound A in the recipient of the Franz cell for a sample with a concentration of 6.36 μg/ml of A.

[2] = test system: Salmonella typhimurium TA98; experiment: Ames test without external metabolisation, TA98; assay type: cell-based; details: no metabolic activation; for Colonies per plate: individual plates 1-4, A; for Colonies per plate / Colonies per plate, Mean: 48 hours; for Mutagenic Ind,: relative to H+/B+
Procedure: (§1) The mutagenic activity of compound A was evaluated using the Ames test without external metabolisation. The Ames test is based on the use of bacterial strains to detect mutations in the DNA in vitro using bacterial strains that make it possible to detect types of damage to the genome.
(§2) Bacteria of 4 strains of Salmonella typhimurium that are internationally recommended for this test, TA1535, TA1537, TA98 and TA100, were used. The test was carried out according to highly standardised protocols. […] The test was carried out without external metabolic activation. The plates were incubated at 37° C. and the reverting colonies were counted after 48 hours.

[3] = test system: Salmonella typhimurium TA100; experiment: Ames test without external metabolisation, TA100; assay type: cell-based; details: no metabolic activation; for Colonies per plate: individual plates 1-4, A; for Colonies per plate / Colonies per plate, Mean: 48 hours; for Mutagenic Ind,: relative to H+/B+
Procedure: as §1, §2

[4] = test system: Salmonella typhimurium TA1537; experiment: Ames test without external metabolisation, TA1537; assay type: cell-based; details: no metabolic activation; for Colonies per plate: individual plates 1-4; for Colonies per plate / Colonies per plate, Mean: 48 hours; for Mutagenic Ind,: relative to H+/B+
Procedure: as §1, §2

[5] = test system: cell hyperproliferation in hairless rats; experiment: Model of desquamation in hairless rats: corneous material extracted; assay type: in vivo; details: for amount of corneous material extracted, total sum of the right and left flanks, Portal No, 1 / amount of corneous material extracted, total sum of the right and left flanks, Portal No, 2 / amount of corneous material extracted, total sum of the right and left flanks, Portal No, 3 / amount of corneous material extracted, total sum of the right and left flanks, Portal No, 4 / amount of corneous material extracted, total sum of the right and left flanks, Portal No, 5 / amount of corneous material extracted, total sum of the right and left flanks, Portal No, 6: day 11
Procedure: The activity of compound A on cell hyperproliferation in hairless rats was evaluated using the model of desquamation in hairless rats described in the publication: Bräutigam, M., Hübner, H., Rach, P., Thieroff-Ekerdi, R. “Effects of Calcipotriol (MC 903) and Calcitriol after Topical Application on the Skin of Hairless Rats”, Skin Pharmacol 1992; 5:87-92.
(§3) To do this Calcitriol was used as the reference product at 0.01% and compound A was used as the test product at 1% and 0.1% (100 μg/cm^2 and 10 μg/cm^2, respectively). A Control Group was included, administered only with the vehicle (absolute ethanol).
The animals were randomly distributed into the following experimental groups:
(§4) The treatments were administered topically, once a day for 10 days (100 μg/side/animal). The animals were weighed on a daily basis throughout the study and the grade of erythema was evaluated (0=Absence of erythema, 1=Low grade erythema, 3=High grade erythema). On the last day of the study, day 11, the amount of corneous material extracted from the epidermis of the animals was evaluated.

[6] = Assessment of erythema in the hairless rat study; assay type: in vivo, hairless rats; details: 0=absence, 1=low grade, 3=high grade
Procedure: as §3, §4

[7] = Body weight in the hairless rat study; assay type: in vivo, hairless rats
Procedure: as §3, §4

[8] = Signs of toxicity and deaths in the hairless rat study; assay type: in vivo; details: compound A at 1%, topical
Procedure: A Control Group was included, administered only with the vehicle (absolute ethanol).
as §4

[9] = Compound A 0.1% (10 μg/cm^2) topical once a day for 10 days
[10] = Compound A 1% (100 μg/cm^2) topical once a day for 10 days
[11] = Compound A 0.1% topical once a day, Baseline
[12] = Compound A 0.1% topical once a day, Day 2
[13] = Compound A 0.1% topical once a day, Day 3
[14] = Compound A 0.1% topical once a day, Day 4
[15] = Compound A 0.1% topical once a day, Day 5
[16] = Compound A 0.1% topical once a day, Day 6
[17] = Compound A 0.1% topical once a day, Day 7
[18] = Compound A 0.1% topical once a day, Day 8
[19] = Compound A 0.1% topical once a day, Day 9
[20] = Compound A 0.1% topical once a day, Day 10
[21] = Compound A 0.1% topical once a day, Day 11
[22] = Compound A 1% topical once a day, Baseline
[23] = Compound A 1% topical once a day, Day 2
[24] = Compound A 1% topical once a day, Day 3
[25] = Compound A 1% topical once a day, Day 4
[26] = Compound A 1% topical once a day, Day 5
[27] = Compound A 1% topical once a day, Day 6
[28] = Compound A 1% topical once a day, Day 7
[29] = Compound A 1% topical once a day, Day 8
[30] = Compound A 1% topical once a day, Day 9
[31] = Compound A 1% topical once a day, Day 10
[32] = Compound A 1% topical once a day, Day 11

SMILES: C=C1C(=O)O[C@H](CCc2ccc(OC)cc2)[C@@H]1C [Compound A]
- amount of compound A dissolved in the recipient ([1]; samples at 0-24 hours, HPLC quantification limit): < 0.01 mg/mL
- transdermal flow through the skin of the pig ear ([1]; up to 24 hours): no transdermal flow
- Colonies per plate ([2]; Comp. A 10 μg/ml): 9 and 6 and 12 and 14
- Colonies per plate, Mean ([2]; Comp. A 10 μg/ml): 10.25
- Mutagenic Ind, ([2]; Comp. A 10 μg/ml): 1.079
- Colonies per plate ([2]; Comp. A 100 μg/ml): 15 and 12 (2×) and 8
- Colonies per plate, Mean ([2]; Comp. A 100 μg/ml): 11.75
- Mutagenic Ind, ([2]; Comp. A 100 μg/ml): 1.237
- Colonies per plate ([2]; Comp. A 1 mg/ml): 8 and 4 and 6 and 17
- Colonies per plate, Mean ([2]; Comp. A 1 mg/ml): 8.75
- Mutagenic Ind, ([2]; Comp. A 1 mg/ml): 0.9211
- Ames test result (mutagenic effects) ([2]; TA98, concentrations evaluated 10 μg/ml to 1 mg/ml): negative
- Colonies per plate ([3]; Comp. A 10 μg/ml): 38 and 41 and 44 and 54
- Colonies per plate, Mean ([3]; Comp. A 10 μg/ml): 44.25
- Mutagenic Ind, ([3]; Comp. A 10 μg/ml): 0.9124
- Colonies per plate ([3]; Comp. A 100 μg/ml): 45 and 35 and 31 and 51
- Colonies per plate, Mean ([3]; Comp. A 100 μg/ml): 40.5
- Mutagenic Ind, ([3]; Comp. A 100 μg/ml): 0.8351
- Colonies per plate ([3]; Comp. A 1 mg/ml): 52 and 37 and 38 and 40
- Colonies per plate, Mean ([3]; Comp. A 1 mg/ml): 44
- Mutagenic Ind, ([3]; Comp. A 1 mg/ml): 0.9072
- Ames test result (mutagenic effects) ([3]; TA100, concentrations evaluated 10 μg/ml to 1 mg/ml): negative
- Colonies per plate ([4]; Comp. A 10 μg/ml, A): 0 (3×) and 1
- Colonies per plate, Mean ([4]; Comp. A 10 μg/ml): 0.25
- Mutagenic Ind, ([4]; Comp. A 10 μg/ml): 0.5
- Colonies per plate ([4]; Comp. A 100 μg/ml, A): 0 (2×) and 1 and 2
- Colonies per plate, Mean ([4]; Comp. A 100 μg/ml): 0.75
- Mutagenic Ind, ([4]; Comp. A 100 μg/ml): 1.5
- Colonies per plate ([4]; Comp. A 1 mg/ml): 0
- Colonies per plate, Mean ([4]; Comp. A 1 mg/ml): 0
- Mutagenic Ind, ([4]; Comp. A 1 mg/ml): 0
- Ames test result (mutagenic effects) ([4]; TA1537, concentrations evaluated 10 μg/ml to 1 mg/ml): negative
- amount of corneous material extracted, total sum of the right and left flanks, Portal No, 1 [5, 9]: 3.1 ± 0.17 mg
- amount of corneous material extracted, total sum of the right and left flanks, Portal No, 2 [5, 9]: 1.7 ± 0.08 mg
- amount of corneous material extracted, total sum of the right and left flanks, Portal No, 3 [5, 9]: 1.1 ± 0.14 mg
- amount of corneous material extracted, total sum of the right and left flanks, Portal No, 4 [5, 9]: 1.1 ± 0.22 mg
- amount of corneous material extracted, total sum of the right and left flanks, Portal No, 5 [5, 9]: 1.1 ± 0.28 mg
- amount of corneous material extracted, total sum of the right and left flanks, Portal No, 6 [5, 9]: 8.1 ± 0.47 mg
- amount of corneous material extracted, total sum of the right and left flanks, Portal No, 1 [5, 10]: 3.1 ± 0.75 mg
- amount of corneous material extracted, total sum of the right and left flanks, Portal No, 2 [5, 10]: 2.7 ± 0.23 mg
- amount of corneous material extracted, total sum of the right and left flanks, Portal No, 3 [5, 10]: 2.0 ± 0.26 mg
- amount of corneous material extracted, total sum of the right and left flanks, Portal No, 4 [5, 10]: 1.4 ± 0.169 mg
- amount of corneous material extracted, total sum of the right and left flanks, Portal No, 5 [5, 10]: 1.4 ± 0.23 mg
- amount of corneous material extracted, total sum of the right and left flanks, Portal No, 6 [5, 10]: 12.6 ± 0.76 mg
- effect on the animals' skin (corneous material extracted) ([5]; compound A at 0.1%, topical): no effect
- amount of corneous material extracted in relation to the control group and compound A at 0.1% ([5]; compound A at 1%, Student Newman Keuls, p<0.01): statistically significant differences
- Assessment of erythema (mean grade) [6, 11]: 0.0 ± 0.00
- Assessment of erythema (mean grade) [6, 12]: 0.0 ± 0.00
- Assessment of erythema (mean grade) [6, 13]: 0.0 ± 0.00
- Assessment of erythema (mean grade) [6, 14]: 0.0 ± 0.00
- Assessment of erythema (mean grade) [6, 15]: 0.0 ± 0.00
- Assessment of erythema (mean grade) [6, 16]: 0.0 ± 0.00
- Assessment of erythema (mean grade) [6, 17]: 0.0 ± 0.00
- Assessment of erythema (mean grade) [6, 18]: 0.0 ± 0.00
- Assessment of erythema (mean grade) [6, 19]: 0.0 ± 0.00
- Assessment of erythema (mean grade) [6, 20]: 0.0 ± 0.00
- Assessment of erythema (mean grade) [6, 21]: 0.0 ± 0.00
- Assessment of erythema (mean grade) [6, 22]: 0.0 ± 0.00
- Assessment of erythema (mean grade) [6, 23]: 1.0 ± 0.00
- Assessment of erythema (mean grade) [6, 24]: 1.0 ± 0.00
- Assessment of erythema (mean grade) [6, 25]: 1.2 ± 0.11
- Assessment of erythema (mean grade) [6, 26]: 1.3 ± 0.17
- Assessment of erythema (mean grade) [6, 27]: 1.5 ± 0.22
- Assessment of erythema (mean grade) [6, 28]: 1.5 ± 0.22
- Assessment of erythema (mean grade) [6, 29]: 1.2 ± 0.40
- Assessment of erythema (mean grade) [6, 30]: 0.9 ± 0.15
- Assessment of erythema (mean grade) [6, 31]: 0.9 ± 0.15
- Assessment of erythema (mean grade) [6, 32]: 1.2 ± 0.17
- Body weight [7, 11]: 0.0 ± 0.00 g
- Body weight [7, 12]: 0.0 ± 0.00 g
- Body weight [7, 13]: 0.0 ± 0.00 g
- Body weight [7, 14]: 0.0 ± 0.00 g
- Body weight [7, 15]: 0.0 ± 0.00 g
- Body weight [7, 16]: 0.0 ± 0.00 g
- Body weight [7, 17]: 0.0 ± 0.00 g
- Body weight [7, 18]: 0.0 ± 0.00 g
- Body weight [7, 19]: 0.0 ± 0.00 g
- Body weight [7, 20]: 0.0 ± 0.00 g
- Body weight [7, 21]: 0.0 ± 0.00 g
- Body weight [7, 22]: 0.0 ± 0.00 g
- Body weight [7, 23]: 1.0 ± 0.00 g
- Body weight [7, 24]: 1.0 ± 0.00 g
- Body weight [7, 25]: 1.2 ± 0.11 g
- Body weight [7, 26]: 1.3 ± 0.17 g
- Body weight [7, 27]: 1.5 ± 0.22 g
- Body weight [7, 28]: 1.5 ± 0.22 g
- Body weight [7, 29]: 1.2 ± 0.40 g
- Body weight [7, 30]: 0.9 ± 0.15 g
- Body weight [7, 31]: 0.9 ± 0.15 g
- Body weight [7, 32]: 1.2 ± 0.17 g
- signs of toxicity [8]: none of the animals presented signs of toxicity
